Format in all cases: cell-based
Assay [1] relates to A549 human lung cancer cells. Description: CCK-8 proliferation inhibition, A549. The settings on record: CCK-8 method; for inhibition at 10 µM / inhibition at 100 µM: Homo sapiens, A549. On the procedure: (§1) Detecting the inhibition rate of the compound concentrations of 100 μM and 10 μM to Hut78 T-cell Leukemia cell, Jurkat E6-1 human T-cell lymphoma, PANC-1 human pancreatic cancer cells, A549 human lung cancer cells, K562 human chronic myeloid leukemia cells, Hep3B2.1-7 human liver cancer cells, MDA-MB-435s human breast cancer cells, Colo320 human rectal cancer cells and PC-3 human prostate cancer using CCK-8 method.

In assay [2] the test system is Colo320 human rectal cancer cells. Put plainly: CCK-8 proliferation inhibition, Colo320. The settings on record: CCK-8 method; for inhibition at 10 µM / inhibition at 100 µM: Homo sapiens, COLO 320. On the procedure: as §1
On the technique in general: Tetrazolium assays rely on reduction of a dye to a coloured formazan, in cell work by metabolically active cells.

Assay [3] has as its system Jurkat E6-1 human T-cell lymphoma. Put plainly: CCK-8 proliferation inhibition, Jurkat E6-1. The settings on record: for inhibition at 10 µM / inhibition at 100 µM: Homo sapiens; for inhibition at 10 µM: Jurkat E6.1, 10 μM; for inhibition at 100 µM: Jurkat E6.1, 100 μM. On the procedure: as §1
Assay [4] deals with K562 human chronic myeloid leukemia cells. Put plainly: CCK-8 proliferation inhibition, K562. The settings on record: for inhibition at 10 µM / inhibition at 100 µM: Homo sapiens; for inhibition at 10 µM: K562, 10 μM; for inhibition at 100 µM: K562, 100 μM. On the procedure:
as §1

The test system of assay [5] is Hut78 T-cell Leukemia cell. Put plainly: CCK-8 proliferation inhibition, Hut78. The settings on record: for inhibition at 10 µM / inhibition at 100 µM: Homo sapiens, read-out: Hut-78 (inhibition %); for inhibition at 10 µM: HuT78, 10 μM; for inhibition at 100 µM: HuT78, 100 μM. On the procedure: as §1
Assay [6] has as its system PC-3 human prostate cancer. Description: CCK-8 proliferation inhibition, PC-3. The settings on record: CCK-8 method; for inhibition at 10 µM / inhibition at 100 µM: Homo sapiens. On the procedure: as §1
The test system of assay [7] is Hep3B2.1-7 human liver cancer cells. Put plainly: CCK-8 proliferation inhibition, Hep3B2.1-7. The settings on record: CCK-8 method; for inhibition at 10 µM / inhibition at 100 µM: Homo sapiens, Hep3B. On the procedure: as §1
The subject of assay [8] is MDA-MB-435s human breast cancer cells. Description: CCK-8 proliferation inhibition, MDA-MB-435s. The settings on record: CCK-8 method; for inhibition at 10 µM / inhibition at 100 µM: Homo sapiens, MDA-MB-435S. On the procedure: as §1
Assay [9] deals with PANC-1 human pancreatic cancer cells. Put plainly: CCK-8 proliferation inhibition, PANC-1. The settings on record: for inhibition at 10 µM / inhibition at 100 µM: Homo sapiens; for inhibition at 10 µM: PANC-1, 10 μM; for inhibition at 100 µM: PANC-1, 100 μM. On the procedure:
as §1

The values that follow come from patent publication US8889876B2, “Histone deacetylase inhibitors and uses thereof” (Jiangsu Hengyi Pharmaceutical Co., Ltd., priority 2008, dated 2014).

Molecules are shown by their SMILES.

By inhibition is commonly meant the drop in the measured response relative to a control, in per cent. On to `Nc1cnccc1NC(=O)c1ccc(CNC(=O)/C=C/c2cccnc2)cc1` [V-43], for which the inhibition at 10 µM in [1] (compound concentration 10 μM) came to 41.2%; in assay [2] (compound concentration 10 μM), 19.1%; in assay [3], 69.1%; in assay [4], 13.8%; in assay [5] it was 25.7%; in [6] (compound concentration 10 μM) it was 88%. The inhibition at 10 µM in assay [7] (compound concentration 10 μM) turned out to be 22.5%; in assay [8] (compound concentration 10 μM), 18.8%; in [9], 3.1%. The inhibition at 100 µM amounted to 85.5% in [1] (compound concentration 100 μM); 59.4% in assay [2] (compound concentration 100 μM); 96.8% in assay [3]; 60.8% in assay [4]; 49.6% in assay [5]; 94.5% in assay [6] (compound concentration 100 μM). For the same compound, the inhibition at 100 µM in [7] (compound concentration 100 μM) came to 60.5%; in assay [8] (compound concentration 100 μM) it was 86.4%; in assay [9], 35.9%.
Regarding `Nc1ncccc1NC(=O)c1ccc(CNC(=O)/C=C/c2ccc3ccccc3c2)cc1` [V-46, N-(2-amino-3-pyridyl)-4-(2-naphthylacryloylaminomethyl)benzamide], the inhibition at 10 µM in [1] (compound concentration 10 μM) was 7.7%; in [2] (compound concentration 10 μM), 13.7%; in assay [3] it was 14.8%; in assay [4], 27.3%; in [5], 16.4%; in assay [6] (compound concentration 10 μM), -1.7%. In addition, the inhibition at 10 µM worked out at 17.5% in [7] (compound concentration 10 μM), 16.4% in assay [8] (compound concentration 10 μM) and 8.1% in [9]. Besides, the inhibition at 100 µM in assay [1] (compound concentration 100 μM) is 4.1%; in assay [2] (compound concentration 100 μM), -9%; in assay [3], 1.9%; in [4] it was 18.9%; in assay [5], 13.4%; in assay [6] (compound concentration 100 μM), -2.4%. For the same compound, the inhibition at 100 µM in assay [7] (compound concentration 100 μM) was -5%; in assay [8] (compound concentration 100 μM) it was 4.1%; in [9] it was 0.4%.
As to `Nc1ncccc1NC(=O)c1ccc(CNC(=O)CCc2ccccc2)cc1` [V-48, N-(2-amino-3-pyridyl)-4-[(3-phenylpropionyl)aminomethyl]benzamide], the inhibition at 10 µM is 3.9% in assay [1] (compound concentration 10 μM); 2.9% in assay [2] (compound concentration 10 μM); 9.7% in assay [3]; 20% in assay [4]; -0.4% in assay [5]; -16.4% in assay [6] (compound concentration 10 μM). The inhibition at 10 µM in assay [7] (compound concentration 10 μM) was -14%; in [8] (compound concentration 10 μM), 10%; in [9], -2.2%. Moreover, the inhibition at 100 µM was determined as 9.8% in [1] (compound concentration 100 μM); 17.9% in assay [2] (compound concentration 100 μM); 61.9% in assay [3]; 57.2% in assay [4]; 47.4% in [5]; 14.8% in assay [6] (compound concentration 100 μM). Moreover, the inhibition at 100 µM in assay [7] (compound concentration 100 μM) is 20.5%; in assay [8] (compound concentration 100 μM) it was 26.6%; in assay [9], -1.8%.
Consider `Nc1cnccc1NC(=O)c1ccc(CNC(=O)CCc2ccccc2)cc1` [V-49], for which the inhibition at 10 µM was -9.5% in [1] (compound concentration 10 μM); -2.5% in assay [2] (compound concentration 10 μM); 28.4% in assay [3]; 22.1% in [4]; 2.3% in assay [5]; 28.3% in [6] (compound concentration 10 μM). For the same compound, the inhibition at 10 µM was 11% in [7] (compound concentration 10 μM), 10.3% in assay [8] (compound concentration 10 μM) and -6.1% in assay [9]. The inhibition at 100 µM came to 39.9% in assay [1] (compound concentration 100 μM); 33.8% in assay [2] (compound concentration 100 μM); 93.7% in [3]; 71% in [4]; 54.4% in [5]; 53.8% in assay [6] (compound concentration 100 μM). Further, the inhibition at 100 µM in assay [7] (compound concentration 100 μM) came to 63.4%; in [8] (compound concentration 100 μM) it was 51.9%; in assay [9] it was 7.3%.
Take `Cc1ccc(CCC(=O)NCc2ccc(C(=O)Nc3cccnc3N)cc2)cc1` [V-50, N-(2-amino-3-pyridyl)-4-[3-(4-methylphenyl)propionylaminomethyl]benzamide]: the inhibition at 10 µM in assay [1] (compound concentration 10 μM) worked out at 8.6%; in [2] (compound concentration 10 μM), 6.8%; in assay [3], 8.9%; in assay [4], 23.8%; in assay [5], 0.4%; in [6] (compound concentration 10 μM) it was 5.5%. Further, the values for the inhibition at 10 µM in assay [7] (compound concentration 10 μM), in assay [8] (compound concentration 10 μM) and in assay [9] were -0.5%, 14.7% and 10.2%, respectively. The inhibition at 100 µM in assay [1] (compound concentration 100 μM) was 14.2%; in assay [2] (compound concentration 100 μM) it was 27.4%; in [3], 75.9%; in [4] it was 75.7%; in assay [5], 46.9%; in assay [6] (compound concentration 100 μM), -3.8%. The results for the inhibition at 100 µM in assay [7] (compound concentration 100 μM), in assay [8] (compound concentration 100 μM) and in assay [9] were 23.5%, 36.9% and 12.9%, respectively.
For `Cc1ccc(CCC(=O)NCc2ccc(C(=O)Nc3ccncc3N)cc2)cc1` [V-51], the inhibition at 10 µM in assay [1] (compound concentration 10 μM) was -8.9%; in assay [2] (compound concentration 10 μM), -5.7%; in assay [3], 14.8%; in assay [4], -2.4%; in assay [5], -0.5%; in assay [6] (compound concentration 10 μM), 21.4%. Moreover, the results for the inhibition at 10 µM in assay [7] (compound concentration 10 μM), in assay [8] (compound concentration 10 μM) and in assay [9] were 24.9%, 14.1% and 1.4%, respectively. Further, the inhibition at 100 µM in assay [1] (compound concentration 100 μM) is -3.2%; in [2] (compound concentration 100 μM), 7.9%; in [3] it was 42.4%; in assay [4], 53.5%; in assay [5], 35.2%; in assay [6] (compound concentration 100 μM), 45%. The inhibition at 100 µM in [7] (compound concentration 100 μM) was 26.9%; in assay [8] (compound concentration 100 μM) it was 31.3%; in assay [9], -6.1%.
For the compound `COc1ccc(CCC(=O)NCc2ccc(C(=O)Nc3cccnc3N)cc2)cc1` [V-52, N-(2-amino-3-pyridyl)-4-[3-(4-methoxyphenyl)propionylaminomethyl]benzamide], the inhibition at 10 µM is 9.8% in [1] (compound concentration 10 μM); 8% in [2] (compound concentration 10 μM); 7.6% in assay [3]; 29% in assay [4]; 6.5% in assay [5]; -7.4% in assay [6] (compound concentration 10 μM). Besides, the inhibition at 10 µM in assay [7] (compound concentration 10 μM) came to 19%; in assay [8] (compound concentration 10 μM), 13.9%; in assay [9], 13.3%. In addition, the inhibition at 100 µM is 9.9% in assay [1] (compound concentration 100 μM); 17.7% in [2] (compound concentration 100 μM); 73.8% in assay [3]; 67.3% in assay [4]; 50.8% in assay [5]; 24.7% in assay [6] (compound concentration 100 μM). The values for the inhibition at 100 µM in assay [7] (compound concentration 100 μM), in [8] (compound concentration 100 μM) and in [9] were 78.6%, 22.8% and 17.7%, respectively.
Consider `COc1cc(CCC(=O)NCc2ccc(C(=O)Nc3ccnc(N)c3)cc2)cc(OC)c1OC` [V-55, N-(2-amino-4-pyridyl)-4-[3-(3,4,5-methoxyphenyl)propionylaminomethyl]benzamide], for which the results for the “A549 (inhibition %)” value in assay [1] (compound concentration 10 μM) and in [1] (compound concentration 100 μM) were −16.5% and −15.3%, respectively. For the same compound, the “Colo320 (inhibition %)” value in assay [2] (compound concentration 10 μM) was −11.2%; in assay [2] (compound concentration 100 μM) it was −2.8%. Further, the “Jurkat E6-1 (inhibition %)” value is recorded as 10.6% in [3] (10 μM) and 0.6% in assay [3] (100 μM). Moreover, the figures for the “K562 (inhibition %)” value in assay [4] (10 μM) and in assay [4] (100 μM) were −12.8% and −17.4%, respectively. Besides, the “Hut-78 (inhibition %)” value is on record as −5.5% in assay [5] (10 μM) and −2.4% in [5] (100 μM). Also, the figures for the “PC-3 (inhibition %)” value in assay [6] (compound concentration 10 μM) and in assay [6] (compound concentration 100 μM) were 13.3% and 10.9%, respectively. Besides, the “Hep3B (inhibition %)” value was determined as 21.7% in assay [7] (compound concentration 10 μM) and 7.2% in assay [7] (compound concentration 100 μM). The “435s(inhibition %)” value in assay [8] (compound concentration 10 μM) was 6.5%; in [8] (compound concentration 100 μM) it was 4.9%. Besides, the “PANC-1 (inhibition %)” value is given as −7.5% in [9] (10 μM) and −6.1% in [9] (100 μM).
